Results taken from ChEMBL document CHEMBL4507278 (2021).

Experiments:
[1] = target: Tyrosine-protein kinase receptor Tie-1 (Homo sapiens) (UniProt P35590); details: Compound concentration 1000.0 nM
[2] = target: Tyrosine-protein kinase JAK1 (Homo sapiens) (UniProt P23458); details: Compound concentration 1000.0 nM
[3] = target: T1, Alpha-2A adrenergic receptor (Homo sapiens) (UniProt P08913); details: Compound concentration 10.0 uM
T1 sequence (whole entry): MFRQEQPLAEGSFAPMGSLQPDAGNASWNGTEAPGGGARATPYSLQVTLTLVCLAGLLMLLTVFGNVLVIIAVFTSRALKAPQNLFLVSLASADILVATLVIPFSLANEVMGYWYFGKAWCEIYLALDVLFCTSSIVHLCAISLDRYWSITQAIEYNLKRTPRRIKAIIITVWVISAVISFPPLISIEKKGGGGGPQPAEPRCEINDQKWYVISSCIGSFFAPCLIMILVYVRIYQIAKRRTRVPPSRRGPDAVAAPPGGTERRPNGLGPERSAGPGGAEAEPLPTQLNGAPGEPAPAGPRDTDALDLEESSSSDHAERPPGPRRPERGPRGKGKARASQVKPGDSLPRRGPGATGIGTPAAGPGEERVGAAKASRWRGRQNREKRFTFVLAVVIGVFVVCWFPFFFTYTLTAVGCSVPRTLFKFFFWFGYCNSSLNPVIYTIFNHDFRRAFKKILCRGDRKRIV

[4] = target: 5-hydroxytryptamine receptor 1E (Homo sapiens) (UniProt P28566); details: Compound concentration 10.0 uM
[5] = target: Mitogen-activated protein kinase 13 (Homo sapiens) (UniProt O15264); details: Compound concentration 1000.0 nM
[6] = target: Mitogen-activated protein kinase kinase kinase 6 (Homo sapiens) (UniProt O95382); details: Compound concentration 1000.0 nM
[7] = test system: Epidermal growth factor receptor (Homo sapiens), P00533 [UNDEFINED MUTATION]; details: Compound concentration 1000.0 nM
[8] = target: Rhodopsin kinase GRK1 (Homo sapiens) (UniProt Q15835); details: Compound concentration 1000.0 nM
[9] = target: Ribosomal protein S6 kinase alpha-3 (Homo sapiens) (UniProt P51812); details: Compound concentration 1000.0 nM
[10] = target: Activated CDC42 kinase 1 (Homo sapiens) (UniProt Q07912); details: Compound concentration 1000.0 nM
[11] = target: Serine/threonine-protein kinase MAK (Homo sapiens) (UniProt P20794); details: Compound concentration 1000.0 nM
[12] = target: Mitogen-activated protein kinase kinase kinase 13 (Homo sapiens) (UniProt O43283); details: Compound concentration 1000.0 nM
[13] = target: Cyclin-dependent kinase 17 (Homo sapiens) (UniProt Q00537); details: Compound concentration 1000.0 nM
[14] = target: Ribosomal protein S6 kinase alpha-5 (Homo sapiens) (UniProt O75582); details: Compound concentration 1000.0 nM
[15] = target: Myosin-IIIa (Homo sapiens) (UniProt Q8NEV4); details: Compound concentration 1000.0 nM
[16] = target: SRSF protein kinase 3 (Homo sapiens) (UniProt Q9UPE1); details: Compound concentration 1000.0 nM
[17] = target: Serine/threonine-protein kinase Nek7 (Homo sapiens) (UniProt Q8TDX7); details: Compound concentration 1000.0 nM
[18] = target: Tyrosine-protein kinase receptor UFO (Homo sapiens) (UniProt P30530); details: Compound concentration 1000.0 nM
[19] = target: 1-phosphatidylinositol 3-phosphate 5-kinase (Homo sapiens) (UniProt Q9Y2I7); details: Compound concentration 1000.0 nM
[20] = target: Tyrosine-protein kinase ABL1 (Homo sapiens) (UniProt P00519); details: Compound concentration 1000.0 nM
[21] = test system: Mast/stem cell growth factor receptor Kit (Homo sapiens), P10721 [V559D]; details: Compound concentration 1000.0 nM
[22] = target: Tyrosine-protein kinase ABL1 (Homo sapiens) (UniProt P00519); details: Compound concentration 1000.0 nM; remark: listed apart in the source
[23] = target: Sodium-dependent dopamine transporter (Homo sapiens) (UniProt Q01959); details: Compound concentration 10.0 uM
[24] = target: Serine/threonine-protein kinase PAK 3 (Homo sapiens) (UniProt O75914); details: Compound concentration 1000.0 nM
[25] = target: Calcium/calmodulin-dependent protein kinase type II subunit alpha (Homo sapiens) (UniProt Q9UQM7); details: Compound concentration 1000.0 nM
[26] = target: NUAK family SNF1-like kinase 1 (Homo sapiens) (UniProt O60285); details: Compound concentration 1000.0 nM
[27] = target: Insulin receptor (Homo sapiens) (UniProt P06213); details: Compound concentration 1000.0 nM
[28] = target: Serine/threonine-protein kinase WNK3 (Homo sapiens) (UniProt Q9BYP7); details: Compound concentration 1000.0 nM
[29] = target: Mitogen-activated protein kinase kinase kinase 12 (Homo sapiens) (UniProt Q12852); details: Compound concentration 1000.0 nM
[30] = test system: Tyrosine-protein kinase ABL1 (Homo sapiens), P00519 [F317I]; details: Compound concentration 1000.0 nM
[31] = target: Mitogen-activated protein kinase 10 (Homo sapiens) (UniProt P53779); details: Compound concentration 1000.0 nM
[32] = target: Phosphorylase b kinase gamma catalytic chain, skeletal muscle/heart isoform (Homo sapiens) (UniProt Q16816); details: Compound concentration 1000.0 nM
[33] = target: Casein kinase I isoform gamma-3 (Homo sapiens) (UniProt Q9Y6M4); details: Compound concentration 1000.0 nM
[34] = target: Ribosomal protein S6 kinase alpha-2 (Homo sapiens) (UniProt Q15349); details: Compound concentration 1000.0 nM
[35] = target: Phosphatidylinositol 4,5-bisphosphate 3-kinase catalytic subunit gamma isoform (Homo sapiens) (UniProt P48736); details: Compound concentration 1000.0 nM
[36] = target: Ribosomal protein S6 kinase beta-1 (Homo sapiens) (UniProt P23443); details: Compound concentration 1000.0 nM
[37] = target: Dual specificity protein kinase CLK4 (Homo sapiens) (UniProt Q9HAZ1); details: Compound concentration 1000.0 nM
[38] = test system: Tyrosine-protein kinase ABL1 (Homo sapiens), P00519 [F317L]; details: Compound concentration 1000.0 nM
[39] = target: Angiopoietin-1 receptor (Homo sapiens) (UniProt Q02763); details: Compound concentration 1000.0 nM

Sequence of Tyrosine-protein kinase ABL1 (Homo sapiens) (P00519 whole entry): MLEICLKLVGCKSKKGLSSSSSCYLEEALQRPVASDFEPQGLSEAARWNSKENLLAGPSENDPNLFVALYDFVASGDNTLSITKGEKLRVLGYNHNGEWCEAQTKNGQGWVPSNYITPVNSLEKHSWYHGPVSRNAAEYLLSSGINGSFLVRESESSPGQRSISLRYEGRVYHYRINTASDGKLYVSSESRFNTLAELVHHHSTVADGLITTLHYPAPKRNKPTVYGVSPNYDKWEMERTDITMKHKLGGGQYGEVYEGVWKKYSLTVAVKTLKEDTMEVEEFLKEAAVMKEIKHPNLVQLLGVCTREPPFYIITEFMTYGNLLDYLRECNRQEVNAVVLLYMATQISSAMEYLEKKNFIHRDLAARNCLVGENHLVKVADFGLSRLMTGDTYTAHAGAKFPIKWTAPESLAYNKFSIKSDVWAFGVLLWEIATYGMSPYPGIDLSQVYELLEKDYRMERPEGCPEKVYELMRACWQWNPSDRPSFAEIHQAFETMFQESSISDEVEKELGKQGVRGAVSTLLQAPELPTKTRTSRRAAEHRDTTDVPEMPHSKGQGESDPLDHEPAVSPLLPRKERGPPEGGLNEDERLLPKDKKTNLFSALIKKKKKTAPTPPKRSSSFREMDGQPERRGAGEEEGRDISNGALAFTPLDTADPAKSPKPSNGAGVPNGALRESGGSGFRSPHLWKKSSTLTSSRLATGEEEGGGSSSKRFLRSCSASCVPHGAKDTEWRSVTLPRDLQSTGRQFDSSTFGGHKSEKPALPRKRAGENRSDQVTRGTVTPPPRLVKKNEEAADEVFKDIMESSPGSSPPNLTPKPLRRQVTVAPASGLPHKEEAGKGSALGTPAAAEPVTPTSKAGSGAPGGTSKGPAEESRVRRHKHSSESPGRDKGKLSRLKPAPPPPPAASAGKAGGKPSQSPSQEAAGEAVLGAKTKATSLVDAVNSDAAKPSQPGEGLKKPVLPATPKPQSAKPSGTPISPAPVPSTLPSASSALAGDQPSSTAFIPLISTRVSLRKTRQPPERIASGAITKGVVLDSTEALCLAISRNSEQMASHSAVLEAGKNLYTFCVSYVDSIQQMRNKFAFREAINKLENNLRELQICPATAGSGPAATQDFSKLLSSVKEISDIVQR
Sequence of Tyrosine-protein kinase receptor Tie-1 (Homo sapiens) (P35590 whole entry): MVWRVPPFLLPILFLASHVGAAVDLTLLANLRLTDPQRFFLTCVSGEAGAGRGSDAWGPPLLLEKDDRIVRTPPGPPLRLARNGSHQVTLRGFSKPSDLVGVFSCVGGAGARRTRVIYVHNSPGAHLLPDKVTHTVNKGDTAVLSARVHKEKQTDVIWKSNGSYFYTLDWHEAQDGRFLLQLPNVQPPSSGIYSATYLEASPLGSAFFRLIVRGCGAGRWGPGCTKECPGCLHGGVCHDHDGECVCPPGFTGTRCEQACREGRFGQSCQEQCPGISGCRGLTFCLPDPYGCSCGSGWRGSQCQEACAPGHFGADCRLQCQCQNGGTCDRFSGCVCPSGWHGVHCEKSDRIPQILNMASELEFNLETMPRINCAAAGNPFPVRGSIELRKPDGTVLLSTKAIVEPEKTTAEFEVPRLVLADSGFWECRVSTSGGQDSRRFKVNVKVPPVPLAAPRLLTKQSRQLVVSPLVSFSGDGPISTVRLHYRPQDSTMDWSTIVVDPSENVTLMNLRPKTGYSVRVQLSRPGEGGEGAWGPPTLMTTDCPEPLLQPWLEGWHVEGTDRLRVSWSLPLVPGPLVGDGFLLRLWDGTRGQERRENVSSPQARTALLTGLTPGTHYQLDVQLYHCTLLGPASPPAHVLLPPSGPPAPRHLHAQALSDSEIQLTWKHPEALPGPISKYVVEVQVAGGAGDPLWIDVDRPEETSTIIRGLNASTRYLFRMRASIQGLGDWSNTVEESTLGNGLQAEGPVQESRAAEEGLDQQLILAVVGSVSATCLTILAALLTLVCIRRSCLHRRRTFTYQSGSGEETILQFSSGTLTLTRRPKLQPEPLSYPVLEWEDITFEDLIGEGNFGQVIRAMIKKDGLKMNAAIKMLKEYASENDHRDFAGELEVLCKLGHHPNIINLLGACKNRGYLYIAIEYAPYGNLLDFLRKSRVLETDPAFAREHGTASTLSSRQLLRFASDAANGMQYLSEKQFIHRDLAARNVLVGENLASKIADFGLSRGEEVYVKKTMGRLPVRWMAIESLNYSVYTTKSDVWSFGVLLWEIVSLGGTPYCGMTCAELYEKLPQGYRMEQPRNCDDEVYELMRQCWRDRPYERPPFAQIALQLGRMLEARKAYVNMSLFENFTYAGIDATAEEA
Sequence of Mitogen-activated protein kinase kinase kinase 6 (Homo sapiens) (O95382 whole entry): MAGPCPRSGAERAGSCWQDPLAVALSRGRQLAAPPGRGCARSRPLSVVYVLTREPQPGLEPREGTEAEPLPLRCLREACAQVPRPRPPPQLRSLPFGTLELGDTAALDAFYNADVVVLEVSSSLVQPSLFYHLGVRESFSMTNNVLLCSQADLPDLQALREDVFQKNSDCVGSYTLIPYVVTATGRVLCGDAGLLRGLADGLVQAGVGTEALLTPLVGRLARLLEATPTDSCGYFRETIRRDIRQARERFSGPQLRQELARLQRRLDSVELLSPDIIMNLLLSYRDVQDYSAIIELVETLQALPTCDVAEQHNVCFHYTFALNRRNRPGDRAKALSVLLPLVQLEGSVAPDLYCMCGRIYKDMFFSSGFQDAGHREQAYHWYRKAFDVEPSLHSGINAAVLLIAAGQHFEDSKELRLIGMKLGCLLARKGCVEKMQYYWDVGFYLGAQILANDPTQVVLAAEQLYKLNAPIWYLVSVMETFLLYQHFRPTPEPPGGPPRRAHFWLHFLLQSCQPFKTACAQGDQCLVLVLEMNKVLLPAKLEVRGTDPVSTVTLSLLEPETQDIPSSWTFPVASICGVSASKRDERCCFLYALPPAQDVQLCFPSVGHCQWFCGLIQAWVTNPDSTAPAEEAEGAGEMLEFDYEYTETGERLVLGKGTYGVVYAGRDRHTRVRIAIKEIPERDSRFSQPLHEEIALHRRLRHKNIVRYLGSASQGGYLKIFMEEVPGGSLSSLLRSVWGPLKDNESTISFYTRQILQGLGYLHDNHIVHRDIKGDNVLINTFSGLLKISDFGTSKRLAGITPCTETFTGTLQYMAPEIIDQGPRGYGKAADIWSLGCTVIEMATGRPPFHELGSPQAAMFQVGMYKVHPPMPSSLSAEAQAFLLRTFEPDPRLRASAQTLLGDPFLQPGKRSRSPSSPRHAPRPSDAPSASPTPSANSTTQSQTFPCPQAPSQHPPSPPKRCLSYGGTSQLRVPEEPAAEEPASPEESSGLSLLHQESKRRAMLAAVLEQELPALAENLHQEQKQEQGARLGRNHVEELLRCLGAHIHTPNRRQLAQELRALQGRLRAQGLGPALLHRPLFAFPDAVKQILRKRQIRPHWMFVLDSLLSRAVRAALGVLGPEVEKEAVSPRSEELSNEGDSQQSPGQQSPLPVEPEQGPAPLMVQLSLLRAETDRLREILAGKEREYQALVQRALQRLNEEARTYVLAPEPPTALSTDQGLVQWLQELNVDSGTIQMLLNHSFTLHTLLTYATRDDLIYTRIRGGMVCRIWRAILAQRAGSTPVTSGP
Sequence of Sodium-dependent dopamine transporter (Homo sapiens) (Q01959 whole entry): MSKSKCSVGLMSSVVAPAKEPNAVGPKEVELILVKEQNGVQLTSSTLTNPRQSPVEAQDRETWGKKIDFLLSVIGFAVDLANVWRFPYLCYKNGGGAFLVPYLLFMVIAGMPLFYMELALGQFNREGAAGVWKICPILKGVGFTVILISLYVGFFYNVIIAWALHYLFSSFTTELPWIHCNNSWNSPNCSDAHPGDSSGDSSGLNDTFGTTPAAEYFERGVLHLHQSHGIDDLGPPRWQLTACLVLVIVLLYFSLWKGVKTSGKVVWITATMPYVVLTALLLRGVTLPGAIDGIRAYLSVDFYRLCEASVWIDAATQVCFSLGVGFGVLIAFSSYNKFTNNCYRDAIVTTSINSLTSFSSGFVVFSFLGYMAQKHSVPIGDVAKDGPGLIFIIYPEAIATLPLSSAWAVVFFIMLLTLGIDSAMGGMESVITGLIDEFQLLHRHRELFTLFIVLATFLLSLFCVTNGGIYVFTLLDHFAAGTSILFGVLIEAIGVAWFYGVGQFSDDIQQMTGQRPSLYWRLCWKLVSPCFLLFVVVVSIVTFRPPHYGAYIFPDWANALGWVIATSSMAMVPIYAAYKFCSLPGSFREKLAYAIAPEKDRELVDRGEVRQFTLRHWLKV
Sequence of Mitogen-activated protein kinase 10 (Homo sapiens) (P53779 whole entry, canonical isoform): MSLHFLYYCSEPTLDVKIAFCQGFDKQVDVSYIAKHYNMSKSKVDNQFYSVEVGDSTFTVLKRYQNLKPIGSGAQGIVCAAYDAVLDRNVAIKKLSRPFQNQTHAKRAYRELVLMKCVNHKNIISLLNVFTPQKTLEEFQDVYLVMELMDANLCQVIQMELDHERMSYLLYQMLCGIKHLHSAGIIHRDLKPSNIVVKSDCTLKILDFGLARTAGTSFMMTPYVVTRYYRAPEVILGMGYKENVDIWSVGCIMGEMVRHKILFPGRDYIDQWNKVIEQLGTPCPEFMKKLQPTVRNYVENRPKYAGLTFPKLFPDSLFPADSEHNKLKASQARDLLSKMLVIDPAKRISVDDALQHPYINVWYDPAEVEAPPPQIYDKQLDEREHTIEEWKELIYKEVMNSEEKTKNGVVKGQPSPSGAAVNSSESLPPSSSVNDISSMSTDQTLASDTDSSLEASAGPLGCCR
Sequence of Mitogen-activated protein kinase 13 (Homo sapiens) (O15264 whole entry): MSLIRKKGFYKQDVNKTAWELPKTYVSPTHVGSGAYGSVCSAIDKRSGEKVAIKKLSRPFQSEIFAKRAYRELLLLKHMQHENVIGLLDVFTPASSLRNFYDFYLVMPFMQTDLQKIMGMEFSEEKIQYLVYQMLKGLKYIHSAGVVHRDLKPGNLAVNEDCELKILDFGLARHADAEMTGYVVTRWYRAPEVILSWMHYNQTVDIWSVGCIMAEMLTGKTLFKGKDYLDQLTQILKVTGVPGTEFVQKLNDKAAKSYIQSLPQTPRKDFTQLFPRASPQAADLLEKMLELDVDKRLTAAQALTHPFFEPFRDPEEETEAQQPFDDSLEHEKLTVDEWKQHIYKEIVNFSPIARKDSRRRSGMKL

CS(=O)(=O)NCC[C@H](NC(=O)c1cncc2c1cnn2-c1ccc(F)cc1)c1ccnc(S(C)(=O)=O)c1 [BI 9307]
inactive: residual activity [1] 100% | residual activity [2] 96% | inhibition [3] 3.49% | inhibition [4] 8.79% | residual activity [5] 100% | residual activity [6] 100% | residual activity [7] 100% | residual activity [8] 100% | residual activity [9] 100% | residual activity [10] 100% | residual activity [11] 100% | residual activity [12] 100% | residual activity [13] 100% | residual activity [14] 88% | residual activity [15] 93% | residual activity [16] 100% | residual activity [17] 90% | residual activity [18] 95% | residual activity [19] 76% | residual activity [20] 90% | residual activity [21] 100% | residual activity [22] 100% | inhibition [23] 25.3% | residual activity [24] 100% | residual activity [25] 100% | residual activity [26] 85% | residual activity [27] 92% | residual activity [28] 100% | residual activity [29] 82% | residual activity [30] 85% | residual activity [31] 100% | residual activity [32] 75% | residual activity [33] 96% | residual activity [34] 100% | residual activity [35] 80% | residual activity [36] 86% | residual activity [37] 85% | residual activity [38] 100% | residual activity [39] 84%

CS(=O)(=O)c1cc(C2(NC(=O)c3cncc4c3cnn4-c3ccc(F)cc3)CC2)ccn1 [BI 639667]
inactive: residual activity [1] 73% | residual activity [2] 96% | inhibition [3] -2.44% | inhibition [4] 14.8% | residual activity [5] 93% | residual activity [6] 100% | residual activity [7] 98% | residual activity [8] 87% | residual activity [9] 99% | residual activity [10] 100% | residual activity [11] 100% | residual activity [12] 76% | residual activity [13] 79% | residual activity [14] 100% | residual activity [15] 85% | residual activity [16] 100% | residual activity [17] 100% | residual activity [18] 100% | residual activity [19] 79% | residual activity [20] 86% | residual activity [21] 100% | residual activity [22] 71% | inhibition [23] 22.5% | residual activity [24] 100% | residual activity [25] 100% | residual activity [26] 91% | residual activity [27] 100% | residual activity [28] 100% | residual activity [29] 100% | residual activity [30] 98% | residual activity [31] 100% | residual activity [32] 78% | residual activity [33] 100% | residual activity [34] 88% | residual activity [35] 82% | residual activity [36] 100% | residual activity [37] 100% | residual activity [38] 100% | residual activity [39] 100%
